Results reported in US8771665B2 (Cocrystal Discovery, Inc., priority 2010, dated 2014).
pIC50: −log10 of the molar value.

Target: T1, HCV1b NS5B polymerase delta 21 (Hepatitis C virus genotype 1b, UniProt P26663)
T1 construct: purified HCV1b NS5B polymerase delta 21
Test: RNA-Dependent RNA HCV NS5B (Polymerase) Assay and IC50 Determination
Type: biochemical
Method: RNA-Dependent RNA HCV NS5B (Polymerase) Assay and IC50 Determination
In vitro RNA-dependent RNA polymerase activity was determined in a reaction mixture (50 μL) containing 50 mM Tris-HCl, pH 7.5, 5 mM MgCl2, 1 mM dithiothreitol, 0.5% Triton® X-100, 10 μM of UTP, 0.1-0.5 μCi of α-^32P UTP (Perkin Elmer Life Sciences), 1 μg of polyA:U16 (Midland Oligo), and 0.6 μg of purified HCV1b NS5B polymerase delta 21. Different concentrations of compounds were added to the reaction mixtures. The reaction was carried out at RT (23° C.) for 60 min and then stopped by the addition of 100 μL of 50 mM EDTA. The reaction mixtures were filtered through either a DE81 membrane or a positively charged nylon membrane, and the membranes were then extensively washed with 30 mM sodium citrate, pH 7.0 and 300 mM NaCl. The radiolabeled RNA products were quantitated using a Storm™ Phosphorlmager™ (GE Life Sciences). IC50 values were calculated using GraFit 6 and GraphPad Prism 5 from triplicate assays.

T1 sequence (P26663 2420-2989): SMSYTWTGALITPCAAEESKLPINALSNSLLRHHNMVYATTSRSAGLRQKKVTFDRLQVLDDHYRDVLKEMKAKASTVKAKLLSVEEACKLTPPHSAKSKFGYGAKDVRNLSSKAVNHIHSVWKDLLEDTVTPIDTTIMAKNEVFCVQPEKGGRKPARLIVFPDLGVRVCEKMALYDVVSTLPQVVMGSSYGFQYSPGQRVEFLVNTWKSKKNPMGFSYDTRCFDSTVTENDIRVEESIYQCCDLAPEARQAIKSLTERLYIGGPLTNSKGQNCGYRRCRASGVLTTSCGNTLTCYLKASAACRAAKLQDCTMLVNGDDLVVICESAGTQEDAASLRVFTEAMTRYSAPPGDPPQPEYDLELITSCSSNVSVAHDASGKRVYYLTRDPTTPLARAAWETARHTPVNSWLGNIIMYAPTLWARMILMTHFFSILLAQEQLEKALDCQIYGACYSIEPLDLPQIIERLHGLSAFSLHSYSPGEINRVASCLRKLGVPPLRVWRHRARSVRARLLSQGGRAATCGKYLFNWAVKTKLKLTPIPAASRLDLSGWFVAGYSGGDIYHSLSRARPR

Row | SMILES | pIC50
1 | CC1CCC(C2=C(c3cc(I)sc3C(=O)O)CCN(C)C2)CC1 (stereo not drawn) [Example 002, 5-Iodo-3-[1-methyl-5-(4-methyl-cyclohexyl)-1,2,3,6-tetrahydro-pyridin-4-yl]-thiophene-2-carboxylic acid] | < 5.00
2 | CC1CCC(C2=C(c3cc(-c4ccc(N)cc4)sc3C(=O)O)CCN(C)C2)CC1 (stereo not drawn) [Example 004, 5-(4-Amino-phenyl)-3-[1-methyl-5-(4-methyl-cyclohexyl)-1,2,3,6-tetrahydro-pyridin-4-yl]-thiophene-2-carboxylic acid] | > 5.52
3 | CC1CCC(C2=C(c3cc(-c4ccccc4)sc3C(=O)O)CCN(CC3CC3)C2)CC1 (stereo not drawn) [Example 006, 3-[1-Cyclopropylmethyl-5-(4-methyl-cyclohexyl)-1,2,3,6-tetrahydro-pyridin-4-yl]-5-phenyl-thiophene-2-carboxylic acid] | > 5.52
4 | CCCCN1CCC(c2cc(-c3ccccc3)sc2C(=O)O)=C(C2CCC(C)CC2)C1 (stereo not drawn) [Example 007, 3-[1-Butyl-5-(4-methyl-cyclohexyl)-1,2,3,6-tetrahydro-pyridin-4-yl]-5-phenyl-thiophene-2-carboxylic acid] | > 5.52
5 | CC1CCC(C2=C(c3cc(-c4ccccc4)sc3C(=O)O)CCN(CCCO)C2)CC1 (stereo not drawn) [Example 008, 3-[1-(3-Hydroxy-propyl)-5-(4-methyl-cyclohexyl)-1,2,3,6-tetrahydro-pyridin-4-yl]-5-phenyl-thiophene-2-carboxylic acid] | > 5.52
6 | CC1CCC(C2=C(c3cc(-c4ccccc4)sc3C(=O)O)CCN(C(C)C)C2)CC1 (stereo not drawn) [Example 009, 3-[1-Isopropyl-5-(4-methyl-cyclohexyl)-1,2,3,6-tetrahydro-pyridin-4-yl]-5-phenyl-thiophene-2-carboxylic acid] | 5.00 to 5.52
7 | CC1CCC(C2=C(c3cc(C#Cc4ccccc4)sc3C(=O)O)CCN(C)C2)CC1 (stereo not drawn) [Example 010, 3-[1-Methyl-5-(4-methyl-cyclohexyl)-1,2,3,6-tetrahydro-pyridin-4-yl]-5-phenylethynyl-thiophene-2-carboxylic acid] | < 5.00
8 | CC1CCC(C2=C(c3cc(C#CC(C)(C)O)sc3C(=O)O)CCN(C)C2)CC1 (stereo not drawn) [Example 011, 5-(3-Hydroxy-3-methyl-but-1-ynyl)-3-[1-methyl-5-(4-methyl-cyclohexyl)-1,2,3,6-tetrahydro-pyridin-4-yl]-thiophene-2-carboxylic acid] | > 5.52
9 | CC1CCC(C2=C(c3cc(-c4ccc(NC(=O)OC(C)(C)C)cc4)sc3C(=O)O)CCN(C)C2)CC1 (stereo not drawn) [Example 012, 5-(4-tert-Butoxycarbonylamino-phenyl)-3-[1-methyl-5-(4-methyl-cyclohexyl)-1,2,3,6-tetrahydro-pyridin-4-yl]-thiophene-2-carboxylic acid] | < 5.00
10 | COC(=O)c1sc(-c2ccc(NC(=O)c3cscn3)cc2)cc1C1=C(C2CCC(C)CC2)CN(C)CC1 (stereo not drawn) [Example 013A] | > 5.52
11 | CCN1CCC(c2cc(C#CC(C)(C)C)sc2C(=O)O)=C(C2CCC(C)CC2)C1 (stereo not drawn) [Example 014, 5-(3,3-Dimethyl-but-1-ynyl)-3-[1-ethyl-5-(4-methyl-cyclohexyl)-1,2,3,6-tetrahydro-pyridin-4-yl]-thiophene-2-carboxylic acid] | > 5.52
12 | CCN1CCC(c2cc(-c3ccc(-c4cc5ncccn5n4)cc3)sc2C(=O)O)=C(C2CCC(C)CC2)C1 (stereo not drawn) [Example 015, 3-[1-Ethyl-5-(4-methyl-cyclohexyl)-1,2,3,6-tetrahydro-pyridin-4-yl]-5-(4-pyrazolo[1,5-a]pyrimidin-2-yl-phenyl)-thiophene-2-carboxylic acid] | > 5.52
13 | CCN1CCC(c2cc(C#CC3CCCCC3)sc2C(=O)O)=C(C2CCC(C)CC2)C1 (stereo not drawn) [Example 016, 5-Cyclohexylethynyl-3-[1-ethyl-5-(4-methyl-cyclohexyl)-1,2,3,6-tetrahydro-pyridin-4-yl]-thiophene-2-carboxylic acid] | < 5.00
14 | CCN1CCC(c2cc(C#CC3CC3)sc2C(=O)O)=C(C2CCC(C)CC2)C1 (stereo not drawn) [Example 017, 5-Cyclopropylethynyl-3-[1-ethyl-5-(4-methyl-cyclohexyl)-1,2,3,6-tetrahydro-pyridin-4-yl]-thiophene-2-carboxylic acid] | > 5.52
15 | CCN1CCC(c2cc(-c3ccc(NC(C)=O)cc3)sc2C(=O)O)=C(C2CCC(C)CC2)C1 (stereo not drawn) [Example 018, 5-(4-Acetylamino-phenyl)-3-[1-ethyl-5-(4-methyl-cyclohexyl)-1,2,3,6-tetrahydro-pyridin-4-yl]-thiophene-2-carboxylic acid] | 5.00 to 5.52
16 | CCN1CCC(c2cc(-c3ccc(NC(=O)c4cscn4)cc3)sc2C(=O)O)=C(C2CCC(C)CC2)C1 (stereo not drawn) [Example 019, 3-[1-Ethyl-5-(4-methyl-cyclohexyl)-1,2,3,6-tetrahydro-pyridin-4-yl]-5-{4-[(thiazole-4-carbonyl)-amino]-phenyl}-thiophene-2-carboxylic acid] | > 5.52
17 | CCN1CCC(c2cc(-c3ccc(NC(=O)c4ccccc4)cc3)sc2C(=O)O)=C(C2CCC(C)CC2)C1 (stereo not drawn) [Example 020, 5-(4-Benzoylamino-phenyl)-3-[1-ethyl-5-(4-methyl-cyclohexyl)-1,2,3,6-tetrahydro-pyridin-4-yl]-thiophene-2-carboxylic acid] | 5.00 to 5.52
18 | CCN1CCC(c2cc(C#CC(C)(C)N)sc2C(=O)O)=C(C2CCC(C)CC2)C1 (stereo not drawn) [Example 021, 5-(3-Amino-3-methyl-but-1-ynyl)-3-[1-ethyl-5-(4-methyl-cyclohexyl)-1,2,3,6-tetrahydro-pyridin-4-yl]-thiophene-2-carboxylic acid] | > 5.52
19 | CCN1CCC(c2cc(C#CC(C)(C)NC(=O)c3cscn3)sc2C(=O)O)=C(C2CCC(C)CC2)C1 (stereo not drawn) [Example 022, 3-[1-Ethyl-5-(4-methyl-cyclohexyl)-1,2,3,6-tetrahydro-pyridin-4-yl]-5-{3-methyl-3-[(thiazole-4-carbonyl)-amino]-but-1-ynyl}-thiophene-2-carboxylic acid] | < 5.00
20 | CCN1CCC(c2cc(C#CC(C)(C)N(C)C)sc2C(=O)O)=C(C2CCC(C)CC2)C1 (stereo not drawn) [Example 023, 5-(3-Dimethylamino-3-methyl-but-1-ynyl)-3-[1-ethyl-5-(4-methyl-cyclohexyl)-1,2,3,6-tetrahydro-pyridin-4-yl]-thiophene-2-carboxylic acid] | > 5.52
21 | CCN1CCC(c2cc(-c3cccc(NC(C)=O)c3)sc2C(=O)O)=C(C2CCC(C)CC2)C1 (stereo not drawn) [Example 024, 5-(3-Acetylamino-phenyl)-3-[1-ethyl-5-(4-methyl-cyclohexyl)-1,2,3,6-tetrahydro-pyridin-4-yl]-thiophene-2-carboxylic acid] | < 5.00
22 | CCN1CCC(c2cc(-c3cccc(NC(=O)c4cscn4)c3)sc2C(=O)O)=C(C2CCC(C)CC2)C1 (stereo not drawn) [Example 025, 3-[1-Ethyl-5-(4-methyl-cyclohexyl)-1,2,3,6-tetrahydro-pyridin-4-yl]-5-{3-[(thiazole-4-carbonyl)-amino]-phenyl}-thiophene-2-carboxylic acid] | < 5.00
23 | CCN1CCC(c2cc(-c3cccc(N)c3)sc2C(=O)O)=C(C2CCC(C)CC2)C1 (stereo not drawn) [Example 026, 5-(3-Amino-phenyl)-3-[1-ethyl-5-(4-methyl-cyclohexyl)-1,2,3,6-tetrahydro-pyridin-4-yl]-thiophene-2-carboxylic acid] | 5.00 to 5.52
24 | CCN1CCC(c2cc(-c3cccc(NC(=O)c4cccs4)c3)sc2C(=O)O)=C(C2CCC(C)CC2)C1 (stereo not drawn) [Example 027, 3-[1-Ethyl-5-(4-methyl-cyclohexyl)-1,2,3,6-tetrahydro-pyridin-4-yl]-5-{3-[(thiophene-2-carbonyl)-amino]-phenyl}-thiophene-2-carboxylic acid] | < 5.00
25 | CCN1CCC(c2cc(-c3ccc(NC(=O)c4cccs4)cc3)sc2C(=O)O)=C(C2CCC(C)CC2)C1 (stereo not drawn) [Example 028, 3-[1-Ethyl-5-(4-methyl-cyclohexyl)-1,2,3,6-tetrahydro-pyridin-4-yl]-5-{4-[(thiophene-2-carbonyl)-amino]-phenyl}-thiophene-2-carboxylic acid] | > 5.52
26 | CCN1CCC(c2cc(C#CCC(C)C)sc2C(=O)O)=C(C2CCC(C)CC2)C1 (stereo not drawn) [Example 029, 3-[1-Ethyl-5-(4-methyl-cyclohexyl)-1,2,3,6-tetrahydro-pyridin-4-yl]-5-(4-methyl-pent-1-ynyl)-thiophene-2-carboxylic acid] | > 5.52
27 | CCCC(C)C#Cc1cc(C2=C(C3CCC(C)CC3)CN(CC)CC2)c(C(=O)O)s1 (stereo not drawn) [Example 030, 3-[1-Ethyl-5-(4-methyl-cyclohexyl)-1,2,3,6-tetrahydro-pyridin-4-yl]-5-(3-methyl-hex-1-ynyl)-thiophene-2-carboxylic acid] | < 5.00
28 | CCN1CCC(c2cc(C#CC3CCCC3)sc2C(=O)O)=C(C2CCC(C)CC2)C1 (stereo not drawn) [Example 031, 5-Cyclopentylethynyl-3-[1-ethyl-5-(4-methyl-cyclohexyl)-1,2,3,6-tetrahydro-pyridin-4-yl]-thiophene-2-carboxylic acid] | 5.00 to 5.52
29 | CCCC#Cc1cc(C2=C(C3CCC(C)CC3)CN(CC)CC2)c(C(=O)O)s1 (stereo not drawn) [Example 032, 3-[1-Ethyl-5-(4-methyl-cyclohexyl)-1,2,3,6-tetrahydro-pyridin-4-yl]-5-pent-1-ynyl-thiophene-2-carboxylic acid] | > 5.52
30 | CCOC(C#Cc1cc(C2=C(C3CCC(C)CC3)CN(CC)CC2)c(C(=O)O)s1)OCC (stereo not drawn) [Example 033, 5-(3,3-Diethoxy-prop-1-ynyl)-3-[1-ethyl-5-(4-methyl-cyclohexyl)-1,2,3,6-tetrahydro-pyridin-4-yl]-thiophene-2-carboxylic acid] | 5.00 to 5.52
